Laboratory results reported in patent US20080255052A1, “Immunologic regulation by theta defensins” (priority 2004, published 2008).
Entries after “also recorded” stand apart in the source; their conditions may differ. Bridges are numbered along the chain shown (N, C = ends).

Key:
[1] = system: S. aureus and E. coli ML35; assay: Antimicrobial activities in physiological salts and serum; format: cell-based; conditions: NaCl, CaCl2, MgCl2; 10% human serum
Method: (§1) The microbicidal activities of various theta defensin peptides were determined by incubating 2×10^6 CFU/ml with peptides (0-100 μg/ml) in 50 μl of low salt diluents: 10 mM PIPES buffer containing 5 mM glucose, pH 7.4, 10 mM Tris-HCl, pH 7.4, or 10 mM sodium phosphate, pH 7.4, or the same diluents supplemented with 25 to 154 mM NaCl. After 2 h incubation at 37° C., the cell suspensions were diluted 1:50 with 10 mM sodium phosphate buffer, pH 7.4, and exponentially spread with an Autoplate 400 (Spiral Biotech, MD) onto trypticase soy agar (bacteria) or Sabouraud dextrose agar (fungi). After incubation at 37° C. for 18-48 h, colonies were counted and cell survival was expressed as CFU/ml.
(§2) Staphylocidal activities of theta defensins and protegrin were assayed in various buffers and salt concentrations. Log-phase bacteria were incubated for 2 h at 37° C. with increasing concentrations of the peptides (FIG. 9). Cells were incubated with increasing concentrations of RTD-1 (filled circles), RTD-2 (filled triangles), RTD-3 (filled squares), and PG-1 (filled diamonds) in 10 mM PIPES (FIG. 9A), 10 mM Tris-Cl (FIG. 9B), or 10 mM sodium phosphate (FIG. 9C), at pH 7.4, containing 154 mM NaCl.
The bactericidal activities of theta defensins against E. coli in various physiological salt concentrations were also tested. […] Killing of E. coli ML35 was measured by incubating increasing concentrations of RTD-1 (filled circles), RTD-2 (filled triangles), RTD-3 (filled squares), and PG-1 (filled diamonds) with log-phase E. coli ML35 in 10 mM PIPES, pH 7.4, with CaCl2 (1.2 mM) (FIG. 10A), MgCl2 (0.8 mM) (FIG. 10B), or in control incubations where the divalent salts were omitted (FIG. 10C).
The activities of theta defensins in the presence of serum were also analyzed. […] Dose-dependent bactericidal activities of RTD-1 (filled circles), RTD-2 (filled triangles), RTD-3 (filled squares), and PG-1 (filled diamonds) against bacteria were determined in 10 mM PIPES, pH 7.4, containing 10% normal (for S. aureus) or heat-inactivated (for E. coli) human serum.

[2] = system: Escherichia coli ML35, Staphylococcus aureus 502A, Candida albicans, Cryptococcus neoformans; assay: Microbicidal and agar diffusion assays in low salt diluents; format: cell-based, bacteria and fungi; conditions: low salt conditions, absence of physiologic salt
Method: The antimicrobial activities of various theta defensin compounds were measured using a diffusion assay against bacteria (Staphylococcus aureus 502a and Escherichia coli ML35) and fungi (Candida albicans 16820 and Cryptococcus neoformans 271A). The antimicrobial activities were determined in an agar diffusion assay as described previously (Osapay et al., J. Biol. Chem. 275:12017-12022 (2000)). Briefly, 10-μl wells were bored in a 9-cm^2 plate of agarose, buffered with 10 mM 1,4-piperazine-bis(ethanesulfonic acid) (PIPES), pH 7.4, containing 5 mM glucose, and seeded with 1×10^6 mid-log phase cells. Five-μl aliquots of each peptide, dissolved in 0.01% acetic acid (HOAc) at 10-300 μg/ml, were added to each well. After incubation at 37° C. for 2 h, the seeded agar was overlaid with molten agarose containing 6% trypticase soy broth (for bacteria) or Sabouraud dextrose broth (for fungi). Plates were incubated at 37° C. for 18-24 h, and antimicrobial activity was determined by measuring the diameter of clearing around each well.
as §1
FIGS. 2-4 show the results of microbicidal assays performed with various theta defensins and protegrin. Cells were incubated for 2 hours at 37° C. in 10 mM PIPES, pH 7.4, and 5 mM glucose, as described above.
FIGS. 5-8 show antimicrobial activities of various theta defensins as measured using the diffusion assay. […]

[3] = system: Human PBMCs; assay: TNFα release from LPS-stimulated PBMCs; format: cell-based; conditions: LPS 10 μg/ml, RTD-1 0.1-10 μg/ml, supernatants after 3 days
Method: Human PBMCs were prepared by the dextran sedimentation method and resuspended in Iscove's Modified Dulbecco's Medium containing 10% fetal bovine serum. […] Under conditions shown in A-C, aliquots containing 0.5−1×10^6 PBMCs were incubated with 10 μg/ml lipopolysaccharide (LPS) for 2 hours at 37° C., 5% CO2, then treated with RTD-1 (A: 10 μg/ml, B: 1 μg/ml, C, 0.1 μg/ml). Under conditions shown in D-E, a mixture of LPS (10 μg/ml) and RTD-1 (D: 10 μg/ml, E: 1 μg/ml, F: 0.1 μg/ml) were incubated for 2 hours at 37° C. then added to PBMC. Under conditions shown in G-L, control incubations were performed in which PBMCs were incubated with either 10 μg/ml LPS (G), 1 μg/ml phorbol 12-myristate 13-acetate (PMA) (H), varying concentrations of RTD-1 (1:10 μg/ml, J:1 μg/ml, K:0.1 μg/ml), or in media (L). Supernatants from these incubations were harvested after 3 days and soluble TNF was measured using Human TNF ELISA Kit II (BD Biosciences, San Diego). Results were obtained from duplicate incubations.

[4] = system: LPS-stimulated cells; conditions: cited from earlier work
[5] = system: various theta defensin peptides
[6] = system: Staphylococcus aureus; assay: Staphylocidal activity in buffers containing physiologic NaCl; format: cell-based; conditions: 154 mM NaCl, pH 7.4, 2 h at 37° C.
Method: as §1, §2

[7] = system: primary R5 strain of HIV-1; assay: Anti-HIV activity in PHA-stimulated PBMCs (p24 ELISA); format: cell-based; conditions: day 7 of infection
Method: Phytohaemagglutinin (PHA)-stimulated peripheral blood mononuclear cells (PBMCs), pre-incubated for 3 hours with serial dilutions of defensins, were mixed with 1000 TCID50 (50% infectivity of susceptible cells in tissue culture) of a primary R5 strain of HIV-1. Two hours later, the cells were washed, and fresh medium containing defensin and 20 U/ml of IL-2 was added. Five days after infection, 50% of the medium was removed and replaced with fresh medium containing defensin and IL-2. On day 7 of infection, the levels of HIV protein p24 in supernatant fluid were measured by ELISA. […] The active β-defensin was human β-defensin-3.

## Gly-Phe-Cys-Arg-Cys-Leu-Cys-Arg-Arg-Gly-Val-Cys-Arg-Cys-Ile-Cys-Thr-Arg (cyclo(GFCRCLCRRGVCRCICTR); disulfide 7-12, 5-14, 3-16) [RTD-1, Rhesus theta defensin, macrocyclic 18-amino acid antimicrobial peptide, heterodimer of RTD1a and RTD1b nonapeptides]
[1]
  activity in the presence of physiological salts and serum: active
[2]
  antimicrobial activity in vitro: nearly indistinguishable
[3]
  extracellular release of TNFα: modulates extracellular release of TNF-a
[4]
  levels of pro-inflammatory cytokines (TNF-α, IL-1β): Reduction

## Purified β-galactosidase
[5]
  β-Galactosidase activity measured as the rate of o-nitrophenyl-beta-D-galactopyranoside (ONPG) hydrolysis, compared to that obtained in the absence of peptide: various theta defensins inhibited β-galactosidase enzymatic activity

## RTD-2: naturally occurring theta defensin, homodimer of nine-residue sequences (SEQ ID NO:4, FIG. 1) (cyclo(GFCRCICTRGFCRCICTR); not fully specified (bridges); also: homodimer of nine-residue sequences, cyclic; listed as Macaca mulatta)
[6]
  antimicrobial activity in the presence of salt compared to RTD-1: more potent antimicrobial activity; also recorded: higher antimicrobial activity than RTD-1
[1]
  activity in the presence of physiological salts and serum: active
[2]
  antimicrobial activity in vitro: nearly indistinguishable

## RTD-3: naturally occurring theta defensin, homodimer of nine-residue sequences (SEQ ID NO:6, FIG. 1) (cyclo(GVCRCLCRRGVCRCLCRR); not fully specified (bridges); also: homodimer of nine-residue sequences, cyclic; listed as Macaca mulatta)
[6]
  antimicrobial activity in the presence of salt compared to RTD-1: more potent antimicrobial activity; also recorded: higher antimicrobial activity than RTD-1
[1]
  activity in the presence of physiological salts and serum: active
[2]
  antimicrobial activity in vitro: nearly indistinguishable

## human β-defensin-3: human β-defensin-3, the active β-defensin in the anti-HIV assay (GIINTLQKYYCRVRGGRCAVLSCLPKEEQIGKCSTRGRKCCRRKK; Beta-defensin 103; UniProt P81534 23-67, looked up)
[7]
  anti-HIV activity (HIV protein p24 in supernatant): active
